These are literature values, as cited in patent US20020160058A1, “Antialopecia agent” (priority 1996, published 2002).

The subject of the series is alopecia induced by adriamycin. The note with it: reported.

For the substance tocopherol, the “effect on alopecia induced by the combined use of adriamycin with other anticancer agents” value is listed as “no effect”. For the same substance, the “effect on alopecia induced by adriamycin” value (oral administration) was “preventive effect”.
